Patent US7214395B2, “Pharmaceutical and cosmetic composition against skin aging” (Indena S.p.A., priority 2001, dated 2007)

Tested on: fibroblasts
Experiment: collagen metabolism / amino acid up-take by fibroblasts
Type: cell-based
Source text: […]. An improved synthesis of collagen means a faster substitution of the degraded old fibers of collagen with the new ones.

| SMILES | activity on collagen metabolism | capability of the fibroblasts to up-take amino acids such as L-Proline and L-Hydroxyproline |
| --- | --- | --- |
| C[C@H]1[C@H](C)CC[C@]2(C(=O)O)CC[C@]3(C)C(=CC[C@@H]4[C@@]5(C)C[C@@H](O)[C@H](O)[C@@](C)(CO)[C@@H]5CC[C@]43C)[C@H]12 [asiatic acid] | strong activity | improve |
| C[C@H]1[C@H](C)CC[C@]2(C(=O)O)CC[C@]3(C)C(=CC[C@@H]4[C@@]5(C)C[C@@H](O)[C@H](O)[C@@](C)(CO)[C@@H]5[C@H](O)C[C@]43C)[C@H]12 [madecassic acid] | strong activity | improve |
